Measured values as given in patent US11610666B2, “Systems and methods of managing treatment of a chronic condition by symptom tracking” (CORCEPT THERAPEUTICS, INC., priority 2014, dated 2023).

Conditions: human, in vivo
From the text: Treatment of endocrine disorders, such as Cushing's Syndrome, can be particularly difficult to manage due to less predictable patient response to administration of a synthetic steroid, such as mifepristone. Mifepristone is a synthetic steroid that binds progesterone and glucocorticoid receptors and has been employed to treat a number of conditions including meningioma, uterine fibroids, hyperadrenocorticism, metabolic, oncologic, opthamalogic, central nervous system disorders and certain psychiatric illnesses. Examples of such metabolic disorders include diabetes, obesity, antipsychotic induced weight gain, hypertension, and osteoporosis; examples of oncologic illness include various types of cancers, including ovarian cancer and prostate cancer; examples of central nervous system disorders include Alzheimer's Disease, neurodegenerative diseases, post traumatic stress disorder, and alcohol dependence; and examples of opthamalogical conditions include glaucoma and central serous retinopathy. […] For a particular dose of mifepristone, the plasma drug concentration can differ by as much as 800% from one patient to the next. The varied plasma drug concentration can result in some patients not receiving an efficacious dose of mifepristone. For these patients in particular, it is necessary to improve the pharmacokinetics of mifepristone upon administration. […]

- difference in plasma drug concentration from one patient to the next: ≤ 800%
SMILES: CC#C[C@]1(O)CC[C@H]2[C@@H]3CCC4=CC(=O)CCC4=C3[C@@H](c3ccc(N(C)C)cc3)C[C@@]21C [mifepristone]
